Assay results from patent publication US20110172296A1, “MODULATION OF TRANSFORMING GROWTH FACTOR-BETA 1 EXPRESSION” (priority 2010, published 2011).
Values joined by “and” are separate entries in the source; they are usually repeats but may differ in a detail not shown here. Equal entries are not always repeated. In the oligonucleotide strings, read from the 5' end, every base follows the letter of its sugar. An asterisk marks phosphorothioate; unmarked linkages are phosphodiester. Other units and linkages are bracketed, terminal groups are in braces. A string of capitals states the bases alone. e = 2'-O-(2-methoxyethyl) (MOE); [5mC] = 5-methylcytosine; d = 2'-deoxy (DNA)

Key:
human TGF-beta1 mRNA [1] = test: Antisense inhibition of human TGF-beta1 mRNA in HuVEC cells, single 10 nM dose, Lipofectamine 2000 (Example 2); format: cell-based; settings: for % inhibition: 10 nM oligonucleotide, HuVEC, relative to untreated control cells; for inhibition of a TGF-beta1 mRNA: threshold lists of Oligo IDs, 10 nM
Method in brief: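 Percent inhibition relative to untreated controls, from qRT-PCR of mRNA corrected for total RNA (RIBOGREEN). Cells were exposed 4 h to 10 nM phosphorothioate 2-13-5 MOE gapmers with Lipofectamine 2000 at 5,000 cells/well. RNA was harvested after roughly 24 h recovery.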

human TGF-beta1 mRNA [2] = test: Dose-dependent antisense inhibition of human TGF-beta1 in HuVEC cells, Lipofectamine 2000, 0.9375-30 nM (Example 3); format: cell-based; settings: for percent inhibition of TGF-beta1: Lipofectamine 2000; for IC50: Lipofectamine 2000, Example 3
Description: Cells were plated at a density of 5,000 cells per well and transfected using Lipofectamine™ 2000 reagent with 0.9375 nM, 1.875 nM, 3.75 nM, 7.5 nM, 15 nM, and 30 nM concentrations of antisense oligonucleotide for 4 hours, as specified in Table 3. After a recovery period of approximately 16 hours, RNA was isolated from the cells and TGF-beta1 mRNA levels were measured by quantitative real-time PCR. Human TGF-beta1 primer probe set RTS 2980 (forward sequence CTCTCCGACCTGCCACAGA, SEQ ID NO: 160; reverse sequence […], SEQ ID NO: 53; probe sequence CCCTATTCAAGACCACCCACCTTCTGGTX, SEQ ID NO: 161) was used to measure mRNA levels. TGF-beta1 mRNA levels were adjusted according to total RNA content, as measured by RIBOGREEN®. Results are presented as percent inhibition of TGF-beta1, relative to untreated control cells.

[3] = gapmers targeted to SEQ ID NO: 1
[4] = gapmers targeted to SEQ ID NO: 2

| Substance | % inhibition (human TGF-beta1 mRNA [1]; [3]) [%] | inhibition of a TGF-beta1 mRNA (human TGF-beta1 mRNA [1]) | percent inhibition of TGF-beta1 (human TGF-beta1 mRNA [2]; 0.9375 nM) [%] | percent inhibition of TGF-beta1 (human TGF-beta1 mRNA [2]; 1.875 nM) [%] | percent inhibition of TGF-beta1 (human TGF-beta1 mRNA [2]; 3.75 nM) [%] | percent inhibition of TGF-beta1 (human TGF-beta1 mRNA [2]; 7.5 nM) [%] | percent inhibition of TGF-beta1 (human TGF-beta1 mRNA [2]; 15 nM) [%] | percent inhibition of TGF-beta1 (human TGF-beta1 mRNA [2]; 30 nM) [%] | IC50 (human TGF-beta1 mRNA [2]) [nM] | % inhibition (human TGF-beta1 mRNA [1]; [4]) [%] |
| --- | --- | --- | --- | --- | --- | --- | --- | --- | --- | --- |
| 413970 (antisense eG*e[5mC]*d[5mC]*dT*d[5mC]*dA*dG*dG*d[5mC]*dT*dG*d[5mC]*dT*d[5mC]*d[5mC]*eT*e[5mC]*eG*eG*e[5mC]) [compound 413970] | 87 | 60% and 65% and 70% and 75% and 80% and 85% | 48 | 64 | 81 | 91 | 94 | 95 |  |  |
| 413979 (antisense eG*eG*d[5mC]*dT*d[5mC]*d[5mC]*d[5mC]*dA*dG*d[5mC]*dG*dG*d[5mC]*dA*dA*e[5mC]*eG*eG*eA*eA) [compound 413979] | 87 | 60% and 65% and 70% and 75% and 80% and 85% | 42 | 62 | 80 | 92 | 95 | 94 |  |  |
| 414022 (antisense eG*eG*dG*d[5mC]*dT*d[5mC]*d[5mC]*dG*dG*dT*dT*d[5mC]*dT*dG*d[5mC]*eA*e[5mC]*eT*e[5mC]*eT) [compound 414022] | 84 | 60% and 65% and 70% and 75% and 80% | 31 | 50 | 76 | 85 | 91 | 92 | 1.67 |  |
| 414037 (antisense eG*eG*dG*dT*dG*dT*d[5mC]*d[5mC]*dT*dT*dA*dA*dA*dT*dA*e[5mC]*eA*eG*e[5mC]*e[5mC]) [compound 414037] | 89 | 60% and 65% and 70% and 75% and 80% and 85% | 56 | 74 | 87 | 93 | 93 | 92 |  |  |
| 414058 (antisense eA*eG*dG*dT*d[5mC]*dA*dA*dG*d[5mC]*d[5mC]*dA*dT*dG*dT*dG*eG*e[5mC]*eA*e[5mC]*e[5mC]) [compound 414058] |  | 60% and 65% and 70% and 75% and 80% | 46 | 65 | 78 | 88 | 87 | 81 |  | 81 |
| 414102 (antisense eT*eT*dT*dG*dA*dA*d[5mC]*dT*dA*d[5mC]*dA*dT*dG*dG*dG*eT*e[5mC]*e[5mC]*eT*e[5mC]) [compound 414102] |  | 60% and 65% and 70% and 75% and 80% and 85% | 36 | 54 | 70 | 84 | 87 | 84 | 1.42 | 86 |
